# Reference: PMC3853718 (Journal of Translational Medicine, 2013)
# System: subjects with advanced malignancies
# Assay: Phase 1 dose escalation: toxicity, safety and tolerability (DLT, MAD, RP2D, AEs)
# [1] = 7.11 mg/m^2 (n = 7), All grades
# Method: Subjects continued on treatment until there was disease progression, unacceptable toxicity, or the subject withdrew consent. The trial employed an accelerated titration design [16] starting at a dose of 0.33 mg/m^2 (one-sixth of the highest nontoxic dose in dogs).
# the dose was doubled in sequential subjects until a DLT was observed or a subject experienced grade 2 toxicity [16]. In the case of an observed grade 2 toxicity, a second subject was enrolled at the same dose level. If the second subject also experienced a grade 2 toxicity, 2 additional subjects were accrued at that dose level for a total of 4 subjects. […] Each subject was allocated to only a single dose level of drug. Dose delay or modification was permitted based on laboratory and clinical assessment performed on the day of treatment.
# Dose-limiting toxicities were determined during the first cycle for each dose level. A DLT was defined as any grade 3 or 4 hematologic toxicity lasting for at least 1 week, or as any grade 3 or 4 nonhematologic toxicity. […] Normal alkaline phosphatase level (< grade 1) at screening that rose to greater than or equal to grade 3; grade 1 or 2 alkaline phosphatase level at screening that rose to grade 4; grade 1 or 2 aspartate aminotransferase (AST) and/or alanine aminotransferase (ALT) levels at screening that doubled from baseline to become greater than or equal to grade 3; and any other abnormal nonhematology laboratory value greater than or equal to grade 3 that required medical intervention to treat, led to hospitalization, or persisted for at least 1 week were also considered DLTs.
# Adverse events were graded based on the National Cancer Institute Common Terminology Criteria for Adverse Events (NCI CTCAE version 3.0) and were coded using the Medical Dictionary for Regulatory Activities (MedDRA version 13.0).
structure (smiles),measurement,setting,value
CCc1cnn2c(NCc3ccc[n+]([O-])c3)cc(N3CCCC[C@H]3CCO)nc12 [dinaciclib],TEAE: Abdominal distension,[1],1 (14) n (%)
same,TEAE: Abdominal pain,[1],3 (43) n (%)
same,TEAE: Anemia,[1],3 (43) n (%)
same,TEAE: Asthenia,[1],2 (29) n (%)
same,TEAE: Back pain,[1],1 (14) n (%)
same,TEAE: Constipation,[1],1 (14) n (%)
same,TEAE: Cough,[1],0 n (%)
same,TEAE: Decreased appetite,[1],2 (29) n (%)
same,TEAE: Dehydration,[1],1 (14) n (%)
same,TEAE: Diarrhea,[1],1 (14) n (%)
same,TEAE: Dizziness,[1],3 (43) n (%)
same,TEAE: Dyspnea,[1],3 (43) n (%)
same,TEAE: Fatigue,[1],3 (43) n (%)
same,TEAE: Flatulence,[1],2 (29) n (%)
same,TEAE: Hyperbilirubinemia,[1],0 n (%)
same,TEAE: Hyperglycemia,[1],0 n (%)
same,TEAE: Hyperuricemia,[1],0 n (%)
same,TEAE: Hypokalemia,[1],1 (14) n (%)
same,TEAE: Hypophosphatemia,[1],0 n (%)
same,TEAE: Increased ALP,[1],0 n (%)
same,TEAE: Increased ALT,[1],0 n (%)
same,TEAE: Increased AST,[1],0 n (%)
same,TEAE: Nausea,[1],5 (71) n (%)
same,TEAE: Neutropenia,[1],0 n (%)
same,TEAE: Peripheral edema,[1],1 (14) n (%)
same,TEAE: Pyrexia,[1],1 (14) n (%)
same,TEAE: Subjects with any AE,[1],7 (100) n (%)
same,TEAE: Urinary tract infection,[1],2 (29) n (%)
same,TEAE: Vomiting,[1],2 (29) n (%)
same,TEAE: Weight decreased,[1],1 (14) n (%)
same,TEAE: Abdominal distension,"7.11 mg/m^2 (n = 7), Grade 3–4",0 n (%)
same,TEAE: Abdominal pain,"7.11 mg/m^2 (n = 7), Grade 3–4",1 (14) n (%)
same,TEAE: Anemia,"7.11 mg/m^2 (n = 7), Grade 3–4",2 (29) n (%)
same,TEAE: Asthenia,"7.11 mg/m^2 (n = 7), Grade 3–4",0 n (%)
same,TEAE: Back pain,"7.11 mg/m^2 (n = 7), Grade 3–4",0 n (%)
same,TEAE: Constipation,"7.11 mg/m^2 (n = 7), Grade 3–4",0 n (%)
same,TEAE: Cough,"7.11 mg/m^2 (n = 7), Grade 3–4",0 n (%)
same,TEAE: Decreased appetite,"7.11 mg/m^2 (n = 7), Grade 3–4",0 n (%)
same,TEAE: Dehydration,"7.11 mg/m^2 (n = 7), Grade 3–4",0 n (%)
same,TEAE: Diarrhea,"7.11 mg/m^2 (n = 7), Grade 3–4",0 n (%)
same,TEAE: Dizziness,"7.11 mg/m^2 (n = 7), Grade 3–4",0 n (%)
same,TEAE: Dyspnea,"7.11 mg/m^2 (n = 7), Grade 3–4",1 (14) n (%)
same,TEAE: Fatigue,"7.11 mg/m^2 (n = 7), Grade 3–4",0 n (%)
same,TEAE: Flatulence,"7.11 mg/m^2 (n = 7), Grade 3–4",0 n (%)
same,TEAE: Hyperbilirubinemia,"7.11 mg/m^2 (n = 7), Grade 3–4",0 n (%)
same,TEAE: Hyperglycemia,"7.11 mg/m^2 (n = 7), Grade 3–4",0 n (%)
same,TEAE: Hyperuricemia,"7.11 mg/m^2 (n = 7), Grade 3–4",0 n (%)
same,TEAE: Hypokalemia,"7.11 mg/m^2 (n = 7), Grade 3–4",0 n (%)
same,TEAE: Hypophosphatemia,"7.11 mg/m^2 (n = 7), Grade 3–4",0 n (%)
same,TEAE: Increased ALP,"7.11 mg/m^2 (n = 7), Grade 3–4",0 n (%)
same,TEAE: Increased ALT,"7.11 mg/m^2 (n = 7), Grade 3–4",0 n (%)
same,TEAE: Increased AST,"7.11 mg/m^2 (n = 7), Grade 3–4",0 n (%)
same,TEAE: Nausea,"7.11 mg/m^2 (n = 7), Grade 3–4",0 n (%)
same,TEAE: Neutropenia,"7.11 mg/m^2 (n = 7), Grade 3–4",0 n (%)
same,TEAE: Peripheral edema,"7.11 mg/m^2 (n = 7), Grade 3–4",0 n (%)
same,TEAE: Pyrexia,"7.11 mg/m^2 (n = 7), Grade 3–4",0 n (%)
same,TEAE: Subjects with any AE,"7.11 mg/m^2 (n = 7), Grade 3–4",4 (57) n (%)
same,TEAE: Urinary tract infection,"7.11 mg/m^2 (n = 7), Grade 3–4",0 n (%)
same,TEAE: Vomiting,"7.11 mg/m^2 (n = 7), Grade 3–4",1 (14) n (%)
same,TEAE: Weight decreased,"7.11 mg/m^2 (n = 7), Grade 3–4",0 n (%)
same,TEAE: Abdominal distension,"10 mg/m^2 (n = 3), All grades",0 n (%)
same,TEAE: Abdominal pain,"10 mg/m^2 (n = 3), All grades",1 (33) n (%)
same,TEAE: Anemia,"10 mg/m^2 (n = 3), All grades",0 n (%)
same,TEAE: Asthenia,"10 mg/m^2 (n = 3), All grades",0 n (%)
same,TEAE: Back pain,"10 mg/m^2 (n = 3), All grades",0 n (%)
same,TEAE: Constipation,"10 mg/m^2 (n = 3), All grades",2 (67) n (%)
same,TEAE: Cough,"10 mg/m^2 (n = 3), All grades",0 n (%)
same,TEAE: Decreased appetite,"10 mg/m^2 (n = 3), All grades",0 n (%)
same,TEAE: Dehydration,"10 mg/m^2 (n = 3), All grades",0 n (%)
same,TEAE: Diarrhea,"10 mg/m^2 (n = 3), All grades",1 (33) n (%)
same,TEAE: Dizziness,"10 mg/m^2 (n = 3), All grades",0 n (%)
same,TEAE: Dyspnea,"10 mg/m^2 (n = 3), All grades",0 n (%)
same,TEAE: Fatigue,"10 mg/m^2 (n = 3), All grades",0 n (%)
same,TEAE: Flatulence,"10 mg/m^2 (n = 3), All grades",0 n (%)
same,TEAE: Hyperbilirubinemia,"10 mg/m^2 (n = 3), All grades",0 n (%)
same,TEAE: Hyperglycemia,"10 mg/m^2 (n = 3), All grades",1 (33) n (%)
same,TEAE: Hyperuricemia,"10 mg/m^2 (n = 3), All grades",0 n (%)
same,TEAE: Hypokalemia,"10 mg/m^2 (n = 3), All grades",1 (33) n (%)
same,TEAE: Hypophosphatemia,"10 mg/m^2 (n = 3), All grades",0 n (%)
same,TEAE: Increased ALP,"10 mg/m^2 (n = 3), All grades",0 n (%)
same,TEAE: Increased ALT,"10 mg/m^2 (n = 3), All grades",0 n (%)
same,TEAE: Increased AST,"10 mg/m^2 (n = 3), All grades",0 n (%)
same,TEAE: Nausea,"10 mg/m^2 (n = 3), All grades",1 (33) n (%)
same,TEAE: Neutropenia,"10 mg/m^2 (n = 3), All grades",1 (33) n (%)
same,TEAE: Peripheral edema,"10 mg/m^2 (n = 3), All grades",0 n (%)
same,TEAE: Pyrexia,"10 mg/m^2 (n = 3), All grades",0 n (%)
same,TEAE: Subjects with any AE,"10 mg/m^2 (n = 3), All grades",3 (100) n (%)
same,TEAE: Urinary tract infection,"10 mg/m^2 (n = 3), All grades",1 (33) n (%)
same,TEAE: Vomiting,"10 mg/m^2 (n = 3), All grades",2 (67) n (%)
same,TEAE: Weight decreased,"10 mg/m^2 (n = 3), All grades",0 n (%)
same,TEAE: Abdominal distension,"10 mg/m^2 (n = 3), Grade 3–4",0 n (%)
same,TEAE: Abdominal pain,"10 mg/m^2 (n = 3), Grade 3–4",0 n (%)
same,TEAE: Anemia,"10 mg/m^2 (n = 3), Grade 3–4",0 n (%)
same,TEAE: Asthenia,"10 mg/m^2 (n = 3), Grade 3–4",0 n (%)
same,TEAE: Back pain,"10 mg/m^2 (n = 3), Grade 3–4",0 n (%)
same,TEAE: Constipation,"10 mg/m^2 (n = 3), Grade 3–4",0 n (%)
same,TEAE: Cough,"10 mg/m^2 (n = 3), Grade 3–4",0 n (%)
same,TEAE: Decreased appetite,"10 mg/m^2 (n = 3), Grade 3–4",0 n (%)
same,TEAE: Dehydration,"10 mg/m^2 (n = 3), Grade 3–4",0 n (%)
same,TEAE: Diarrhea,"10 mg/m^2 (n = 3), Grade 3–4",0 n (%)
same,TEAE: Dizziness,"10 mg/m^2 (n = 3), Grade 3–4",0 n (%)
same,TEAE: Dyspnea,"10 mg/m^2 (n = 3), Grade 3–4",0 n (%)
same,TEAE: Fatigue,"10 mg/m^2 (n = 3), Grade 3–4",0 n (%)
same,TEAE: Flatulence,"10 mg/m^2 (n = 3), Grade 3–4",0 n (%)
same,TEAE: Hyperbilirubinemia,"10 mg/m^2 (n = 3), Grade 3–4",0 n (%)
